Data taken from ChEMBL document CHEMBL1275492, “In vitro activity of ceftobiprole against pathogens from two phase 3 clinical trials of complicated skin and skin structure infections” (2008).

Tests used:
Format in all cases: functional
Providencia stuartii = test: Antibacterial activity against Providencia stuartii obtained from complicated skin and skin structure infections by agar dilution method
[1] = test system: Staphylococcus intermedius; test: Antibacterial activity against Staphylococcus intermedius obtained from complicated skin and skin structure infections by agar dilution method
Bacillus = test: Antibacterial activity against Bacillus spp. obtained from complicated skin and skin structure infections by agar dilution method
Gemella = test: Antibacterial activity against Gemella spp. obtained from complicated skin and skin structure infections by agar dilution method
Micrococcus = test: Antibacterial activity against Micrococcus spp. obtained from complicated skin and skin structure infections by agar dilution method
[2] = Antibacterial activity against Streptococcus sp. 'group C' obtained from complicated skin and skin structure infections by agar dilution method
Streptococcus pyogenes = test: Antibacterial activity against Streptococcus pyogenes obtained from complicated skin and skin structure infections by agar dilution method
Lactococcus lactis = test: Antibacterial activity against Lactococcus lactis obtained from complicated skin and skin structure infections by agar dilution method
Klebsiella pneumoniae = test: Antibacterial activity against Klebsiella pneumoniae obtained from complicated skin and skin structure infections by agar dilution method
Pseudomonas aeruginosa = test: Antibacterial activity against Pseudomonas aeruginosa obtained from complicated skin and skin structure infections by agar dilution method
Escherichia coli = test: Antibacterial activity against Escherichia coli obtained from complicated skin and skin structure infections by agar dilution method
Streptococcus agalactiae = test: Antibacterial activity against Streptococcus agalactiae obtained from complicated skin and skin structure infections by agar dilution method
Pseudomonas fluorescens = test: Antibacterial activity against Pseudomonas fluorescens obtained from complicated skin and skin structure infections by agar dilution method
Proteus vulgaris = test: Antibacterial activity against Proteus vulgaris obtained from complicated skin and skin structure infections by agar dilution method
Acinetobacter baumannii = test: Antibacterial activity against Acinetobacter baumannii obtained from complicated skin and skin structure infections by agar dilution method
Streptococcus mitis = test: Antibacterial activity against Streptococcus mitis obtained from complicated skin and skin structure infections by agar dilution method
Morganella morganii = test: Antibacterial activity against Morganella morganii obtained from complicated skin and skin structure infections by agar dilution method
Gemella morbillorum = test: Antibacterial activity against Gemella morbillorum obtained from complicated skin and skin structure infections […]
[3] = test system: Streptococcus constellatus; test: Antibacterial activity against Streptococcus constellatus obtained from complicated skin and skin structure infections by agar dilution method
Enterococcus faecalis = test: Antibacterial activity against Enterococcus faecalis obtained from complicated skin and skin structure infections by agar dilution method
Citrobacter braakii = test: Antibacterial activity against Citrobacter braakii obtained from complicated skin and skin structure infections by agar dilution method
Enterobacter cloacae = test: Antibacterial activity against Enterobacter cloacae obtained from complicated skin and skin structure infections by agar dilution method
[4] = Antibacterial activity against Streptococcus sp. 'group G' obtained from complicated skin and skin structure infections by agar dilution method
Salmonella = test: Antibacterial activity against Salmonella spp. obtained from complicated skin and skin structure infections by agar dilution method
Klebsiella oxytoca = test: Antibacterial activity against Klebsiella oxytoca obtained from complicated skin and skin structure infections by agar dilution method
Proteus penneri = test: Antibacterial activity against Proteus penneri obtained from complicated skin and skin structure infections by agar dilution method
Serratia marcescens = test: Antibacterial activity against Serratia marcescens obtained from complicated skin and skin structure infections by agar dilution method
Proteus mirabilis = test: Antibacterial activity against Proteus mirabilis obtained from complicated skin and skin structure infections by agar dilution method
[5] = test system: Stenotrophomonas maltophilia; test: Antibacterial activity against Stenotrophomonas maltophilia obtained from complicated skin and skin structure infections by agar dilution method
Aerococcus viridans = test: Antibacterial activity against Aerococcus viridans obtained from complicated skin and skin structure infections by agar dilution method
Klebsiella aerogenes = test: Antibacterial activity against Enterobacter aerogenes obtained from complicated skin and skin structure infections by agar dilution method
Citrobacter freundii = test: Antibacterial activity against Citrobacter freundii obtained from complicated skin and skin structure infections by agar dilution method
Enterobacter amnigenus = test: Antibacterial activity against Enterobacter amnigenus obtained from complicated skin and skin structure infections by agar dilution method; conditions: Lelliottia amnigena
[6] = test system: Staphylococcus lugdunensis; test: Antibacterial activity against methicillin-resistant, oxacillin-susceptible, coagulase-negative, mecA-positive Staphylococcus lugdunensis obtained from complicated skin and skin structure infections by agar dilution method
[7] = test system: Staphylococcus lugdunensis; test: Antibacterial activity against coagulase-negative Staphylococcus lugdunensis obtained from complicated skin and skin structure infections by agar dilution method
Staphylococcus aureus [8] = test: Antibacterial activity against methicillin susceptible Staphylococcus aureus obtained from complicated skin and skin structure infections by agar dilution method
Staphylococcus cohnii = test: Antibacterial activity against coagulase-negative Staphylococcus cohnii obtained from complicated skin and skin structure infections by agar dilution method
Staphylococcus hominis = test: Antibacterial activity against coagulase-negative Staphylococcus hominis obtained from complicated skin and skin structure infections by agar dilution method
[9] = test system: Staphylococcus epidermidis; test: Antibacterial activity against coagulase-negative Staphylococcus epidermidis obtained from complicated skin and skin structure infections by agar dilution method
[10] = test system: Staphylococcus saprophyticus; test: Antibacterial activity against coagulase-negative Staphylococcus saprophyticus obtained from complicated skin and skin structure infections by agar dilution method
Staphylococcus capitis = test: Antibacterial activity against coagulase-negative Staphylococcus capitis obtained from complicated skin and skin structure infections by agar dilution method
Enterococcus faecium = test: Antibacterial activity against Enterococcus faecium obtained from complicated skin and skin structure infections by agar dilution method
Staphylococcus aureus [11] = test: Antibacterial activity against methicillin resistant Staphylococcus aureus obtained from complicated skin and skin structure infections by agar dilution method
Staphylococcus = test: Antibacterial activity against methicillin-susceptible, coagulase-negative Staphylococcus obtained from complicated skin and skin structure infections by agar dilution method
Staphylococcus warneri = test: Antibacterial activity against coagulase-negative Staphylococcus warneri obtained from complicated skin and skin structure infections by agar dilution method
[12] = test system: Staphylococcus haemolyticus; test: Antibacterial activity against coagulase-negative Staphylococcus haemolyticus obtained from complicated skin and skin structure infections by agar dilution method
Mammaliicoccus sciuri = test: Antibacterial activity against coagulase-negative Staphylococcus sciuri obtained from complicated skin and skin structure infections by agar dilution method

CC(C)(O/N=C(\C(=O)N[C@@H]1C(=O)N2C(C(=O)[O-])=C(C[n+]3ccccc3)CS[C@H]12)c1csc(N)n1)C(=O)O [CEFTAZIDIME]
4 µg/mL: MIC90 [2] | MIC90 [3]
8 µg/mL: MIC90 (Morganella morganii)
16 µg/mL: MIC90 (Providencia stuartii) | MIC90 (Proteus vulgaris) | MIC90 (Citrobacter braakii) | MIC90 (Salmonella) | MIC90 (Klebsiella oxytoca) | MIC90 (Proteus penneri) | MIC90 (Serratia marcescens) | MIC90 (Klebsiella aerogenes) | MIC90 (Citrobacter freundii) | MIC90 (Enterobacter amnigenus)
≤ 0.12 µg/mL: MIC50 (Morganella morganii)
0.25 µg/mL: MIC90 [1] | MIC90 (Escherichia coli) | MIC90 (Streptococcus mitis) | MIC50 (Enterobacter cloacae) | MIC50 [4] | MIC90 [4]
> 128 µg/mL: MIC90 (Pseudomonas aeruginosa) | MIC90 (Pseudomonas fluorescens) | MIC90 (Acinetobacter baumannii) | MIC50 (Enterococcus faecalis) | MIC90 (Enterococcus faecalis) | MIC90 [5]
0.06 µg/mL: MIC50 (Proteus mirabilis)
0.12 µg/mL: MIC50 (Providencia stuartii) | MIC50 [1] | MIC50 (Streptococcus pyogenes) | MIC90 (Streptococcus pyogenes) | MIC50 (Klebsiella pneumoniae) | MIC50 (Escherichia coli) | MIC50 (Proteus vulgaris) | MIC50 (Streptococcus mitis) | MIC50 (Citrobacter braakii) | MIC50 (Salmonella) | MIC50 (Klebsiella oxytoca) | MIC50 (Proteus penneri) | MIC50 (Serratia marcescens) | MIC50 (Klebsiella aerogenes) | MIC50 (Citrobacter freundii) | MIC50 (Enterobacter amnigenus)
1 µg/mL: MIC50 (Bacillus) | MIC50 (Gemella) | MIC50 (Micrococcus) | MIC50 (Lactococcus lactis) | MIC90 (Streptococcus agalactiae) | MIC50 (Gemella morbillorum) | MIC50 (Aerococcus viridans)
2 µg/mL: MIC50 (Pseudomonas aeruginosa) | MIC50 [3] | MIC90 (Proteus mirabilis)
0.5 µg/mL: MIC50 [2] | MIC50 (Streptococcus agalactiae)
> 16 µg/mL: MIC50 (Pseudomonas fluorescens) | MIC50 (Acinetobacter baumannii) | MIC50 [5]
64 µg/mL: MIC90 (Bacillus) | MIC90 (Gemella) | MIC90 (Micrococcus) | MIC90 (Lactococcus lactis) | MIC90 (Klebsiella pneumoniae) | MIC90 (Gemella morbillorum) | MIC90 (Enterobacter cloacae) | MIC90 (Aerococcus viridans)

CCC[C@@H]1C[C@@H](C(=O)N[C@@H]([C@H]2O[C@H](SC)[C@H](O)[C@@H](O)[C@H]2O)[C@H](C)Cl)N(C)C1 [CLINDAMYCIN]
> 8 µg/mL: MIC90 [6] | MIC90 (Enterococcus faecalis)
0.06 µg/mL: MIC50 [6] | MIC50 [7] | MIC50 (Streptococcus pyogenes) | MIC90 (Streptococcus pyogenes) | MIC50 (Staphylococcus cohnii) | MIC50 (Staphylococcus hominis) | MIC50 [9] | MIC50 [10] | MIC50 (Streptococcus agalactiae) | MIC50 (Staphylococcus capitis) | MIC50 (Enterococcus faecium) | MIC90 [3] | MIC50 (Staphylococcus warneri) | MIC50 [4] | MIC90 [4] | MIC50 [12] | MIC50 (Mammaliicoccus sciuri)
16 µg/mL: MIC50 (Enterococcus faecalis)
1 µg/mL: MIC50 (Bacillus) | MIC90 [7] | MIC50 (Gemella) | MIC50 (Micrococcus) | MIC50 (Lactococcus lactis) | MIC90 (Staphylococcus cohnii) | MIC90 (Staphylococcus hominis) | MIC90 [9] | MIC90 [10] | MIC90 (Staphylococcus capitis) | MIC50 (Gemella morbillorum) | MIC90 (Staphylococcus warneri) | MIC90 [12] | MIC90 (Mammaliicoccus sciuri) | MIC50 (Aerococcus viridans)
4 µg/mL: MIC90 [1] | MIC90 (Bacillus) | MIC90 (Gemella) | MIC90 (Micrococcus) | MIC90 (Lactococcus lactis) | MIC90 (Streptococcus mitis) | MIC90 (Gemella morbillorum) | MIC90 (Aerococcus viridans)
0.12 µg/mL: MIC50 (Staphylococcus aureus [8]) | MIC90 (Staphylococcus aureus [8]) | MIC50 (Staphylococcus aureus [11]) | MIC90 (Staphylococcus)
2 µg/mL: MIC50 [1] | MIC50 (Streptococcus mitis)
≤ 0.06 µg/mL: MIC50 [2] | MIC (Enterococcus faecium) | MIC [3] | MIC50 [3] | MIC50 (Staphylococcus)
> 16 µg/mL: MIC90 (Streptococcus agalactiae) | MIC90 (Staphylococcus aureus [11])
0.25 µg/mL: MIC90 [2]
